# Results: US8895561B2, “Compounds and methods for treating candidiasis and aspergillus infections” (Cellceutix Corporation, priority 2012, dated 2014)
# pEC50: −log10 of the molar value.
# Tested on: E. faecalis 29212
# Assay: Bacterial MIC, broth microdilution, CLSI
# Format: cell-based
# Conditions: Enterococcus faecalis, 29212; read-out: EF (MIC)
# Method: (§1) Candida IC50s were determined by OD600 and fluorescence from vegetative cells and by MTS viability assay in the hyphal state. MICs were determined using a broth microdilution assay under standard CLSI conditions Bacteria strains: E. coli 25922 (EC), S. aureus 27660 (SA), E. faecalis 29212 (EF), P. aeruginosa 10145 (PA), and K. pneumoniae 13883 (KP). Cytotoxicity (EC50) was determined against mouse 3T3 fibroblasts, human transformed liver HepG2 cells, and human oral keratinocyte cell line, OKF6/TERT using an MTS viability assay. Candida IC50s<10 μg/mL, MICs<5 μg/mL and cytotoxicity EC50s>100 μM are indicated in green. MICs>5 μg/mL and cytotoxicity EC50s<100 μM are indicated in red. Candida IC50s (CA) were determined by OD600 and fluorescence from vegetative cells. MICs were determined using a broth microdilution assay under standard CLSI conditions Bacteria strains: E. coli 25922 (EC), S. aureus 27660 (SA), E. faecalis 29212 (EF), P. aeruginosa 10145 (PA), and K. pneumoniae 13883 (KP). Cytotoxicity (EC50) was determined against mouse 3T3 fibroblasts and human transformed liver HepG2 cells using an MTS viability assay.
row,SMILES,MIC [µg/mL]
1,NCCCc1cccc(-c2ccc3c4ccc(-c5cccc(CCCN)c5)cc4n(CCN)c3c2)c1 [Compound 140],3.13
2,N=C(N)NCCCCCc1cccc(-c2ccc3c4ccc(-c5cccc(CCCNC(=N)N)c5)cc4n(CCCNC(=N)N)c3c2)c1 [Compound 142],6.25
3,NCCCOc1cc(OCCCN)cc(-c2ccc3c4ccc(-c5cc(OCCCN)cc(OCCCN)c5)cc4n(CCCN)c3c2)c1 [Compound 143],1.56
4,NCCCn1c2cc(-c3cccc(CCN)c3)ccc2c2ccc(-c3cccc(CCN)c3)cc21 [Compound 144],0.195
5,NCCCOc1cc(OCCCN)cc(-c2ccc3c(c2)c2ccccc2n3CCCN)c1 [Compound 145],3.13

# Tested on: S. aureus 27660
# Assay: Bacterial MIC, broth microdilution, CLSI
# Format: cell-based
# Conditions: Staphylococcus aureus, 27660; read-out: SA (MIC)
# Method: as §1
row,SMILES,MIC [µg/mL]
1,NCCCc1cccc(-c2ccc3c4ccc(-c5cccc(CCCN)c5)cc4n(CCN)c3c2)c1 [Compound 140],0.195
2,N=C(N)NCCCCCc1cccc(-c2ccc3c4ccc(-c5cccc(CCCNC(=N)N)c5)cc4n(CCCNC(=N)N)c3c2)c1 [Compound 142],1.56
3,NCCCOc1cc(OCCCN)cc(-c2ccc3c4ccc(-c5cc(OCCCN)cc(OCCCN)c5)cc4n(CCCN)c3c2)c1 [Compound 143],0.39
4,NCCCn1c2cc(-c3cccc(CCN)c3)ccc2c2ccc(-c3cccc(CCN)c3)cc21 [Compound 144],0.098
5,NCCCOc1cc(OCCCN)cc(-c2ccc3c(c2)c2ccccc2n3CCCN)c1 [Compound 145],25

# Tested on: P. aeruginosa 10145
# Assay: Bacterial MIC, broth microdilution, CLSI
# Format: cell-based
# Conditions: Pseudomonas aeruginosa, 10145; read-out: PA (MIC)
# Method: as §1
row,SMILES,MIC [µg/mL]
1,NCCCc1cccc(-c2ccc3c4ccc(-c5cccc(CCCN)c5)cc4n(CCN)c3c2)c1 [Compound 140],3.13
2,N=C(N)NCCCCCc1cccc(-c2ccc3c4ccc(-c5cccc(CCCNC(=N)N)c5)cc4n(CCCNC(=N)N)c3c2)c1 [Compound 142],25
3,NCCCOc1cc(OCCCN)cc(-c2ccc3c4ccc(-c5cc(OCCCN)cc(OCCCN)c5)cc4n(CCCN)c3c2)c1 [Compound 143],50
4,NCCCn1c2cc(-c3cccc(CCN)c3)ccc2c2ccc(-c3cccc(CCN)c3)cc21 [Compound 144],3.13
5,NCCCOc1cc(OCCCN)cc(-c2ccc3c(c2)c2ccccc2n3CCCN)c1 [Compound 145],50

# Tested on: E. coli 25922
# Assay: Bacterial MIC, broth microdilution, CLSI
# Format: cell-based
# Conditions: Escherichia coli, 25922; read-out: EC (MIC)
# Method: as §1
row,SMILES,MIC [µg/mL]
1,NCCCc1cccc(-c2ccc3c4ccc(-c5cccc(CCCN)c5)cc4n(CCN)c3c2)c1 [Compound 140],0.78
2,N=C(N)NCCCCCc1cccc(-c2ccc3c4ccc(-c5cccc(CCCNC(=N)N)c5)cc4n(CCCNC(=N)N)c3c2)c1 [Compound 142],3.13
3,NCCCOc1cc(OCCCN)cc(-c2ccc3c4ccc(-c5cc(OCCCN)cc(OCCCN)c5)cc4n(CCCN)c3c2)c1 [Compound 143],3.13
4,NCCCn1c2cc(-c3cccc(CCN)c3)ccc2c2ccc(-c3cccc(CCN)c3)cc21 [Compound 144],3.13
5,NCCCOc1cc(OCCCN)cc(-c2ccc3c(c2)c2ccccc2n3CCCN)c1 [Compound 145],> 50

# Tested on: C. albicans GDH2346
# Assay: Candida IC50, vegetative cells, by OD600 and fluorescence
# Format: cell-based
# Conditions: Candida albicans, GDH2346; vegetative cells; read-out: CA (Candida IC50)
# Method: Candida IC50s were determined by OD600 and fluorescence from vegetative cells and by MTS viability assay in the hyphal state. MICs were determined using a broth microdilution assay under standard CLSI conditions Bacteria strains: E. coli 25922 (EC), S. aureus 27660 (SA), E. faecalis 29212 (EF), P. aeruginosa 10145 (PA), and K. pneumoniae 13883 (KP). Cytotoxicity (EC50) was determined against mouse 3T3 fibroblasts, human transformed liver HepG2 cells, and human oral keratinocyte cell line, OKF6/TERT using an MTS viability assay. Candida IC50s<10 μg/mL, MICs<5 μg/mL and cytotoxicity EC50s>100 μM are indicated in green. MICs>5 μg/mL and cytotoxicity EC50s<100 μM are indicated in red. Candida IC50s (CA) were determined by OD600 and fluorescence from vegetative cells. MICs were determined using a broth microdilution assay under standard CLSI conditions Bacteria strains: E. coli 25922 (EC), S. aureus 27660 (SA), E. faecalis 29212 (EF), P. aeruginosa 10145 (PA), and K. pneumoniae 13883 (KP). Cytotoxicity (EC50) was determined against mouse 3T3 fibroblasts and human transformed liver HepG2 cells using an MTS viability assay. For determination of anti-Candida IC50s, the method was modified by using RPMI/MOPS buffer pH 6.3 and by addition of FDGlu, a substrate for the yeast enzyme exoglucanase which is secreted during cell growth. This provides a fluorescent readout for cell growth which was used in addition to the traditional optical density measure of growth. OD600 and fluorescence were determined at 24 and 48 hours and the average of all 4 reads was used for the final IC50 determination.
row,SMILES,IC50 [µg/mL]
1,NCCCc1cccc(-c2ccc3c4ccc(-c5cccc(CCCN)c5)cc4n(CCN)c3c2)c1 [Compound 140],3.58
2,N=C(N)NCCCCCc1cccc(-c2ccc3c4ccc(-c5cccc(CCCNC(=N)N)c5)cc4n(CCCNC(=N)N)c3c2)c1 [Compound 142],1.65
3,NCCCOc1cc(OCCCN)cc(-c2ccc3c4ccc(-c5cc(OCCCN)cc(OCCCN)c5)cc4n(CCCN)c3c2)c1 [Compound 143],6.48
4,NCCCn1c2cc(-c3cccc(CCN)c3)ccc2c2ccc(-c3cccc(CCN)c3)cc21 [Compound 144],3.95
5,NCCCOc1cc(OCCCN)cc(-c2ccc3c(c2)c2ccccc2n3CCCN)c1 [Compound 145],23.9

# Tested on: not listed separately
# Assay: Cytotoxicity, MTS viability assay
# Format: cell-based, human
# Conditions: human, HepG2 cells (transformed liver); read-out: HepG2 (cytotoxicity EC50)
# Method: Candida IC50s were determined by OD600 and fluorescence from vegetative cells and by MTS viability assay in the hyphal state. MICs were determined using a broth microdilution assay under standard CLSI conditions Bacteria strains: E. coli 25922 (EC), S. aureus 27660 (SA), E. faecalis 29212 (EF), P. aeruginosa 10145 (PA), and K. pneumoniae 13883 (KP). Cytotoxicity (EC50) was determined against mouse 3T3 fibroblasts, human transformed liver HepG2 cells, and human oral keratinocyte cell line, OKF6/TERT using an MTS viability assay. Candida IC50s<10 μg/mL, MICs<5 μg/mL and cytotoxicity EC50s>100 μM are indicated in green. MICs>5 μg/mL and cytotoxicity EC50s<100 μM are indicated in red.
# Candida IC50s (CA) were determined by OD600 and fluorescence from vegetative cells. MICs were determined using a broth microdilution assay under standard CLSI conditions Bacteria strains: E. coli 25922 (EC), S. aureus 27660 (SA), E. faecalis 29212 (EF), P. aeruginosa 10145 (PA), and K. pneumoniae 13883 (KP). Cytotoxicity (EC50) was determined against mouse 3T3 fibroblasts and human transformed liver HepG2 cells using an MTS viability assay.
# CLSI conditions Bacteria strains: clinical isolates; yeast strains: C. dubliniensis (NCPF3949), C. glabrata (ATCC 90030), C. krusei (ATCC 6258), C. parapsilosis (ATCC 22019), and C. tropicalis (ATCC 750). Cytotoxicity (EC50) was determined against mouse 3T3 fibroblasts, human transformed liver HepG2 cells, and human oral keratinocyte cell line, OKF6/TERT using an MTS viability assay.
row,SMILES,pEC50
1,NCCCc1cccc(-c2ccc3c4ccc(-c5cccc(CCCN)c5)cc4n(CCN)c3c2)c1 [Compound 140],4.00
2,N=C(N)NCCCCCc1cccc(-c2ccc3c4ccc(-c5cccc(CCCNC(=N)N)c5)cc4n(CCCNC(=N)N)c3c2)c1 [Compound 142],4.00
3,NCCCOc1cc(OCCCN)cc(-c2ccc3c4ccc(-c5cc(OCCCN)cc(OCCCN)c5)cc4n(CCCN)c3c2)c1 [Compound 143],3.85
4,NCCCn1c2cc(-c3cccc(CCN)c3)ccc2c2ccc(-c3cccc(CCN)c3)cc21 [Compound 144],3.73
5,NCCCOc1cc(OCCCN)cc(-c2ccc3c(c2)c2ccccc2n3CCCN)c1 [Compound 145],3.10

# Same assay, conditions: mouse, 3T3 fibroblasts; read-out: 3T3 (cytotoxicity EC50)
row,SMILES,pEC50
1,NCCCc1cccc(-c2ccc3c4ccc(-c5cccc(CCCN)c5)cc4n(CCN)c3c2)c1 [Compound 140],3.80
2,N=C(N)NCCCCCc1cccc(-c2ccc3c4ccc(-c5cccc(CCCNC(=N)N)c5)cc4n(CCCNC(=N)N)c3c2)c1 [Compound 142],3.88
3,NCCCOc1cc(OCCCN)cc(-c2ccc3c4ccc(-c5cc(OCCCN)cc(OCCCN)c5)cc4n(CCCN)c3c2)c1 [Compound 143],3.65
4,NCCCn1c2cc(-c3cccc(CCN)c3)ccc2c2ccc(-c3cccc(CCN)c3)cc21 [Compound 144],4.10
5,NCCCOc1cc(OCCCN)cc(-c2ccc3c(c2)c2ccccc2n3CCCN)c1 [Compound 145],< 3.00
